Several values for one entry are separate records, joined by “and”; a condition that tells them apart may be missing. Equal values may be shown once. Toxic doses and inconclusive results are not listed. Cut-off read from the data, not from the text of the source: active = T/C of 150% or more; inactive = T/C below 125%.
Tested on: L1210 leukemia ip in BDF1 mice, survival T/C
Assay: NCI In Vivo Anticancer Drug Screen. Data for tumor model L1210 Leukemia (intraperitoneal) in B6D2F1 (BDF1) mice
Conditions: endpoint: mean survival time, higher = longer survival
Procedure, shortened: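 Antitumor effect is assessed in tumor-bearing animals. Survival in the compound arm is compared with a vehicle-dosed control arm and expressed as their quotient.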

[1] = dose: 100.0 mg/kg/injection, schedule: Q04DX002 (ip), vehicle: Klucel (hydroxypropylcellulose) (HPC)
[2] = dose: 100.0 mg/kg/injection, schedule: Q01DX001 (ip), vehicle: saline
[3] = dose: 200.0 mg/kg/injection, schedule: Q01DX001 (ip), vehicle: saline
[4] = dose: 400.0 mg/kg/injection, schedule: Q01DX001 (ip), vehicle: saline
[5] = dose: 100.0 mg/kg/injection, schedule: Q01DX001 (ip), vehicle: carboxymethylcellulose (CMC)
[6] = dose: 50.0 mg/kg/injection, schedule: Q01DX009 (ip), vehicle: saline with Tween-80
[7] = dose: 100.0 mg/kg/injection, schedule: Q01DX009 (ip), vehicle: saline with Tween-80
[8] = dose: 100.0 mg/kg/injection, schedule: Q04DX003 (ip), vehicle: saline with Tween-80
[9] = dose: 200.0 mg/kg/injection, schedule: Q01DX001 (ip), vehicle: saline with Tween-80
[10] = dose: 200.0 mg/kg/injection, schedule: Q01DX009 (ip), vehicle: saline with Tween-80
[11] = dose: 200.0 mg/kg/injection, schedule: Q04DX003 (ip), vehicle: saline with Tween-80
[12] = dose: 400.0 mg/kg/injection, schedule: Q01DX001 (ip), vehicle: saline with Tween-80
[13] = dose: 100.0 mg/kg/injection, schedule: Q01DX001 (ip), vehicle: saline with Tween-80
[14] = dose: 100.0 mg/kg/injection, schedule: Q01DX001 (ip), vehicle: Klucel (hydroxypropylcellulose) (HPC)
[15] = dose: 200.0 mg/kg/injection, schedule: Q01DX001 (ip), vehicle: Klucel (hydroxypropylcellulose) (HPC)
[16] = dose: 400.0 mg/kg/injection, schedule: Q01DX001 (ip), vehicle: Klucel (hydroxypropylcellulose) (HPC)
[17] = dose: 100.0 mg/kg/injection, schedule: Q01DX009 (ip), vehicle: Klucel (hydroxypropylcellulose) (HPC)
[18] = dose: 100.0 mg/kg/injection, schedule: Q04DX003 (ip), vehicle: Klucel (hydroxypropylcellulose) (HPC)
[19] = dose: 200.0 mg/kg/injection, schedule: Q01DX009 (ip), vehicle: Klucel (hydroxypropylcellulose) (HPC)
[20] = dose: 200.0 mg/kg/injection, schedule: Q04DX003 (ip), vehicle: Klucel (hydroxypropylcellulose) (HPC)
[21] = dose: 400.0 mg/kg/injection, schedule: Q01DX009 (ip), vehicle: Klucel (hydroxypropylcellulose) (HPC)
[22] = dose: 400.0 mg/kg/injection, schedule: Q04DX003 (ip), vehicle: Klucel (hydroxypropylcellulose) (HPC)
[23] = dose: 200.0 mg/kg/injection, schedule: Q01DX001 (ip), vehicle: carboxymethylcellulose (CMC)
[24] = dose: 400.0 mg/kg/injection, schedule: Q01DX001 (ip), vehicle: carboxymethylcellulose (CMC)
[25] = dose: 400.0 mg/kg/injection, schedule: Q04DX003 (ip), vehicle: saline with Tween-80

Measured: T/C

O=C(CN1C2CCC1CC(O)C2)NCC1C(c2ccccc2)C1c1ccccc1 (stereo not drawn)
inactive: dose: 25.0 mg/kg/injection, schedule: Q04DX002 (ip), vehicle: Klucel (hydroxypropylcellulose) (HPC) 111 % of control | dose: 50.0 mg/kg/injection, schedule: Q04DX002 (ip), vehicle: Klucel (hydroxypropylcellulose) (HPC) 95 % of control | [1] 109 % of control

O=C(CC(=O)c1ccco1)c1ccco1
inactive: [2] 100 % of control | [3] 102 % of control | [4] 96 % of control

CCP(=S)(CC)CC
inactive: [1] 104 % of control | dose: 200.0 mg/kg/injection, schedule: Q04DX002 (ip), vehicle: Klucel (hydroxypropylcellulose) (HPC) 96 % of control | dose: 400.0 mg/kg/injection, schedule: Q04DX002 (ip), vehicle: Klucel (hydroxypropylcellulose) (HPC) 93 % of control

CN(CCCCN(C)P(=O)(N1CC1)N1CC1)P(=O)(N1CC1)N1CC1
inactive: [5] 88 % of control

O=S(=O)(OC1CCCCC1Br)c1ccc(Br)cc1 (stereo not drawn)
inactive: [6] 98 % of control | [7] 95 % of control

O=C(O)c1[nH]c(=O)[nH]c(=O)c1F.[Ga]
inactive: [6] 109 % of control | [7] 91 % of control | [8] 101 % of control | [10] 99 % of control | [11] 102 % of control
active: dose: 177.0 mg/kg/injection, schedule: Q01DX001 (ip), vehicle: saline with Tween-80 160 % of control | [9] 174 % of control | [12] 197 % of control

Nc1nc(=S)[nH][nH]1
inactive: [6] 105 % of control | [13] 104 % of control | [7] 117 % of control | [8] 104 % of control | [9] 105 % of control | [10] 101 % of control | [11] 98 % of control

CC/C(=C(/Cl)c1ccccc1)c1ccccc1
inactive: [14] 98 % of control | [15] 102 % of control | [16] 100 % of control

CCO/C=C1\SC(=S)N(c2ccc(OCC)cc2)C1=O
inactive: [17] 98 % of control | [18] 98 % of control | [19] 95 % of control | [20] 98 % of control | [21] 98 % of control | [22] 97 % of control

CCN(CC)CCNC(=O)c1cc(N2CCOCC2)ccn1
inactive: [2] 108 % of control | [3] 102 % of control

O=[N+]([O-])/C=C\C(Cl)(Cl)Cl
inactive: dose: 6.25 mg/kg/injection, schedule: Q01DX009 (ip), vehicle: saline with Tween-80 96 % of control | dose: 12.5 mg/kg/injection, schedule: Q01DX009 (ip), vehicle: saline with Tween-80 87 % of control

CCOC(=O)C(C)(NC(C)=O)C(C)=O (stereo not drawn)
inactive: dose: 50.0 mg/kg/injection, schedule: Q01DX001 (ip), vehicle: carboxymethylcellulose (CMC) 106 % of control | [5] 114 % of control | [23] 101 % of control | [24] 92 % of control

COC(=O)C(Br)C(Br)c1cc(OC)c(OC)c(OC)c1 (stereo not drawn)
inactive: [5] 89 % of control | [23] 93 % of control | [24] 103 % of control

BrCC1OCCCO1
inactive: dose: 25.0 mg/kg/injection, schedule: Q01DX009 (ip), vehicle: saline with Tween-80 96 % of control | dose: 25.0 mg/kg/injection, schedule: Q04DX002 (ip), vehicle: saline 100 % of control | dose: 50.0 mg/kg/injection, schedule: Q04DX002 (ip), vehicle: saline 118 % of control | [7] 114 % of control | dose: 100.0 mg/kg/injection, schedule: Q04DX002 (ip), vehicle: saline with Tween-80 117 % of control | dose: 100.0 mg/kg/injection, schedule: Q04DX002 (ip), vehicle: saline 100 % of control

CC(C)(C)C(=O)CC(=O)C(C)(C)C.CC(C)(C)C(=O)CC(=O)C(C)(C)C.CC(C)(C)C(=O)CC(=O)C(C)(C)C.[Pr]
inactive: [13] 100 % of control | [7] 98 % of control | [9] 97 % of control | [10] 88 % of control | [12] 89 % of control

NC1(C(=O)O)CSSC1
inactive: dose: 12.5 mg/kg/injection, schedule: Q01DX005 (ip), vehicle: saline 97 % of control | dose: 25.0 mg/kg/injection, schedule: Q01DX005 (ip), vehicle: saline 99 % of control | dose: 50.0 mg/kg/injection, schedule: Q01DX005 (ip), vehicle: saline 103 % of control and 114 % of control | [2] 106 % of control | dose: 100.0 mg/kg/injection, schedule: Q01DX005 (ip), vehicle: saline 110 % of control | [3] 101 % of control

Nn1c(-c2cccc(O)c2)nnc1-c1cccc(O)c1
inactive: [2] 104 % of control | [3] 95 % of control | [4] 101 % of control

N#CCC(=O)N/N=C\c1ccc2c(c1)OCO2
inactive: [5] 97 % of control | [23] 94 % of control | [24] 97 % of control

C/C=C\CC(C(C)=O)C(=O)OCC (stereo not drawn)
inactive: dose: 75.0 mg/kg/injection, schedule: Q01DX009 (ip), vehicle: saline 92 % of control | dose: 100.0 mg/kg/injection, schedule: Q04DX003 (ip), vehicle: saline 105 % of control | dose: 150.0 mg/kg/injection, schedule: Q01DX009 (ip), vehicle: saline 92 % of control | dose: 200.0 mg/kg/injection, schedule: Q04DX003 (ip), vehicle: saline 91 % of control | dose: 300.0 mg/kg/injection, schedule: Q01DX009 (ip), vehicle: saline 97 % of control | dose: 400.0 mg/kg/injection, schedule: Q04DX003 (ip), vehicle: saline 104 % of control

Clc1ccc(C=Nc2ccc(Cl)cc2)cc1
inactive: [8] 108 % of control | [11] 90 % of control | [25] 106 % of control

COc1ccc(C2(C(=O)O)CC2)cc1
inactive: [8] 96 % of control | [11] 97 % of control | [25] 94 % of control

O=C1c2ccccc2C(=O)N1OC1CCCCO1 (stereo not drawn)
inactive: [17] 104 % of control | [19] 110 % of control | [21] 97 % of control

COc1ccccc1NC(=O)Nc1ccccc1F
inactive: [17] 100 % of control | [18] 89 % of control | [19] 105 % of control | [20] 89 % of control | [21] 97 % of control | [22] 97 % of control

Cc1ccc(S(=O)(=O)OCC2CCC(COS(=O)(=O)c3ccc(C)cc3)O2)cc1 (stereo not drawn)
inactive: [18] 103 % of control | [20] 100 % of control

COc1ccc2c(c1)CCC(CC(C)=O)C2=O (stereo not drawn)
inactive: dose: 100.0 mg/kg/injection, schedule: Q04DX003 (ip), vehicle: saline sonified 99 % of control | dose: 200.0 mg/kg/injection, schedule: Q04DX003 (ip), vehicle: saline sonified 90 % of control | dose: 400.0 mg/kg/injection, schedule: Q04DX003 (ip), vehicle: saline sonified 89 % of control

CC(C)(C)[N+](Cc1ccccc1)(Cc1ccccc1)Cc1ccccc1
inactive: [8] 100 % of control | [11] 100 % of control | [25] 104 % of control

CN(CCc1ccccc1)/N=N/c1[nH]ncc1C(N)=O
inactive: [14] 108 % of control | [17] 103 % of control | [18] 105 % of control | [15] 105 % of control | [19] 106 % of control | [20] 97 % of control | [16] 113 % of control | [22] 100 % of control | dose: 600.0 mg/kg/injection, schedule: Q01DX009 (ip), vehicle: Klucel (hydroxypropylcellulose) (HPC) 105 % of control

From PubChem BioAssay AID248 (DTP/NCI, 2004)
